Test results from ChEMBL document CHEMBL3301464, “MMV Malaria Box anti-babesial screening”.

How the values were obtained:
[1] = (§1) MMV: Anti-babesial activity assay. Parasite pRBCs at 1% parasitemia were cultivated in 100 ul with 96-well plates at 2.5% and 5% hematocrits. The parasites were cultivated in triplicate for 4 days without replacement of the medium for each concentration of the compound.; type: functional, Babesia bovis
[2] = as §1; type: functional, Babesia bigemina
[3] = as §1; type: functional, Babesia equi
[4] = as §1; type: functional, Babesia caballi

| SMILES | IC50 [1] [nM] | IC50 [2] [µM] | IC50 [3] [µM] | IC50 [4] [µM] |
| --- | --- | --- | --- | --- |
| COc1ccc(Nc2nc(N/N=C/c3ccc(O)cc3)nc(Nc3ccc([N+](=O)[O-])cc3)n2)cc1 | 81 | 0.05 | 15.9 | 5.09 |
| COc1ccc(C2c3ccc4ccccc4c3Oc3ncn(CCCN(C)C)c(=N)c32)cc1 (configuration not stated) | 52 | 0.033 | 0.49 | 7.26 |
| COc1ccc(/C=C2/SC(=Nc3ccccc3)NC2=O)cc1 | 4910 | 1 | 0.1 | 13.3 |
| COc1ccc(-c2nc(N3CCN(C(=O)C4CCCCC4)CC3)c3c4c(sc3n2)CCCC4)cc1 | 1070 | 1 | 8.36 | 11.9 |
| O=C(NC1CCN(Cc2ccccc2)CC1)c1cc2nc(-c3ccc(Cl)s3)cc(C(F)(F)F)n2n1 | 1420 | 0.065 | 13.9 | 4.13 |
| Cc1sc(NC(=O)c2ccccc2)c(C(c2cccs2)N2CCN(c3ccccc3)CC2)c1C (configuration not stated) | 1050 | 0.68 | 10.7 | 14.7 |
| CCOC(=O)c1c(C)n(-c2ccccc2)c2ccc(OC(=O)c3cc(OC)c(OC)c(OC)c3)cc12 | 18600 | 12.6 | 16.5 | 5.9 |
| COc1cc(C(=O)Nc2nc3c(cc4c5c(cccc53)CC4)s2)cc(OC)c1OC | 3080 | 8.04 | 4.41 | 5 |
| COc1ccc(CCN2C(=O)c3[nH]nc(-c4cc(Cl)c(C)cc4O)c3C2c2ccccc2F)cc1 (configuration not stated) | 5900 | 0.63 | 7.65 | 9.01 |
| N#Cc1nc(Cc2cccc3ccccc23)oc1N1CCN(C(c2ccccc2)c2ccccc2)CC1 | 16100 | 19.8 | 12 | 5.09 |
| O=C(NNc1cc(N2CCCC2)nc(N2CCCC2)n1)c1ccccc1 | 4580 | 13.9 | 5.3 | 5.5 |
| COc1ccc(C2c3ccc4ccccc4c3Oc3ncn(CCCn4ccnc4)c(=N)c32)cc1OC (configuration not stated) | 6300 | 0.1 | 5.68 | 0.41 |
| CN(N=O)C1=C(NC2CCCCC2)C(=O)c2ccccc2C1=O | 590 | 4.13 | 0.76 | 0.41 |
| OC1=C2C(=Nc3ccccc3SC2c2ccccc2)c2ccccc21 (configuration not stated) | 100 | 0.5 | 0.1 | 8.77 |
| CCOc1ccc(N2C(N)=NC(N)=NC2(C)C)cc1 | 15200 | 5.9 | 14 | 2.95 |
| COc1cccc(Nc2nc(N)c3ccccc3n2)c1 | 120 | 0.057 | 17.2 | 2.95 |
| COC(=O)c1ccc(C2C3=C(O)CC(c4ccc(F)cc4)CC3=Nc3ccccc3N2C(=O)c2ccccc2)cc1 (configuration not stated) | 63 | 0.086 | 10.4 | 6.86 |
| CCCCCCc1cc2cc(-c3csc(C=Cc4ccccc4)n3)c(=O)oc2cc1O | 5920 | 25 | 6.86 | 10 |
| Oc1ccc(-c2nc(-c3ccc4oc5ccc(-c6[nH]c(-c7ccc(O)cc7)nc6-c6ccccc6)cc5c4c3)c(-c3ccccc3)[nH]2)cc1 | 59 | 1.39 | 0.1 | 10 |
| CC(Oc1ccc(NC(=O)c2cccs2)cc1)C(=O)c1ccc(Cl)cc1 (configuration not stated) | 100 | 0.081 | 13.3 | 0.29 |

| SMILES | IC50 [1] [nM] | IC50 [2] [µM] | IC50 [3] [µM] | IC50 [4] [µM] |
| --- | --- | --- | --- | --- |
| CCOc1ccc(CN2CCN(CC(O)COc3ccc(OCC(O)CN4CCN(Cc5ccc(OCC)cc5)CC4)cc3)CC2)cc1 (configuration not stated) | 50 | 0.13 | 0.45 | 0.37 |
| CCCCNc1nc(NC(C)(C)C)nc(NC(C)(C)C)n1 | 650 | 1 | 0.25 | 0.672 |
| COc1ccc(CNC(=O)c2cc3c(=O)n4ccccc4nc3n(CCc3ccccc3)c2=N)cc1 | 100 | 4.27 | 4.74 | 0.686 |
| COc1ccc(CCn2c(=N)c(C(=O)NCc3cccnc3)cc3c(=O)n4cccc(C)c4nc32)cc1 | 130 | 0.052 | 0.41 | 4.27 |
| COc1ccc(-c2cn3c(C(=O)Nc4ccccc4Cl)c(-c4ccccc4)c4c3n2CCCC4)cc1 | 770 | 21.6 | 1 | 12.5 |
| Cn1c(=O)n(C)c2cc(CNCCNc3ccnc4cc(Cl)ccc34)ccc21 | 71 | 0.081 | 0.1 | 0.489 |
| Cn1c(C(=O)c2cccc3ccccc23)nc2ccccc21 | 3730 | 12 | 10 | 0.81 |
| CCN(CC)CCNc1ccnc2cc3ccccc3cc12 | 7720 | 3.25 | 5.69 | 5.09 |
| COc1ccc(Nc2cc(C)nc(NCc3ccccc3)n2)cc1 | 54 | 0.067 | 15.2 | 14.6 |
| COc1ccc(C=C2SC(Nc3ccc(F)cc3)=NC2=O)c(OC)c1 | 100 | 0.082 | 4.61 | 0.836 |
| Oc1ccc2ccccc2c1CNc1nc2ccccc2[nH]1 | 6810 | 10 | 4.37 | 3.04 |
| O=C1c2ccc3c4c(ccc(c24)C(=O)N1CCCCO)C(=O)N(CCCCO)C3=O | 600 | 3.34 | 0.67 | 0.53 |
| O=C(Nc1ccc(-c2nc3cc(NC(=O)c4ccc(Cl)cc4)ccc3[nH]2)cc1)c1ccc(Cl)cc1 | 17000 | 5.09 | 13.3 | 9.1 |
| OCCNc1nc(Nc2ccc(Cl)c(Cl)c2)nc2ccccc12 | 520 | 3.34 | 1.39 | 0.1 |
| Nc1ccc(-c2nc3cc(Oc4ccc(Oc5ccc6[nH]c(-c7ccc(N)cc7)nc6c5)cc4)ccc3[nH]2)cc1 | 10000 | 18.9 | 3.86 | 4.52 |
| CCOC(=O)c1cnc2ccc(OC)cc2c1Nc1ccc(N2CCN(C)CC2)cc1 | 61 | 1 | 10 | 8.25 |
| COc1ccc(C(=O)C(CCC(CNC(C)(C)C)C(=O)c2ccc(OC)cc2)CNC(C)(C)C)cc1 (configuration not stated) | 570 | 2.95 | 0.17 | 4.68 |
| CCOc1cc2c(cc1OCC)C(c1cc(Cl)ccc1O)NCC2 (configuration not stated) | 1060 | 10 | 1.4 | 0.33 |
| COc1cc(C(=O)ON=C(N)Cc2cccc3ccccc23)cc(OC)c1OC | 13300 | 12.5 | 10.1 | 5.3 |
| COc1cc(-c2nc(-c3ccccc3)c(-c3ccccc3)[nH]2)cc(OC)c1O | 8030 | 3.34 | 12 | 21.7 |

| SMILES | IC50 [1] [nM] | IC50 [2] [µM] | IC50 [3] [µM] | IC50 [4] [µM] |
| --- | --- | --- | --- | --- |
| Cc1ccc(Nc2nc(N)c3ccccc3n2)cc1Cl | 6310 | 9.87 | 16.5 | 10 |
| OC(CNC1CCCCC1)Cn1c2ccc(I)cc2c2cc(I)ccc21 (configuration not stated) | 1300 | 16.5 | 2.17 | 3.73 |
| CCc1ccc(CNCC(O)c2ccccc2)cc1 (configuration not stated) | 11100 | 7.65 | 15.2 | 4.13 |
| COc1cc(CNCCc2ccc(Cl)cc2)cc(OC)c1O | 10000 | 5.81 | 12.6 | 6.85 |
| c1ccc(CNc2nc(Nc3ccccc3)nc3ccccc23)cc1 | 4060 | 10 | 2.12 | 3.73 |
| CCOc1ccc(Nc2ccnc3cc(Cl)ccc23)cc1 | 56 | 0.068 | 15.9 | 10 |
| Oc1ccc(Br)cc1CN1CCN(Cc2ccc(Cl)cc2)CC1 | 8610 | 25 | 2.95 | 3.86 |
| CCOc1ccc2nc(C)cc(Nc3ccc(Br)cc3)c2c1 | 1070 | 0.6 | 7.13 | 15.2 |
| COc1cc2c3cc1Oc1c(OC)c(OC)cc4c1C(Cc1ccc(O)c(c1)Oc1ccc(cc1)CC3N(C)CC2)N(C)CC4 (configuration not stated) | 68 | 10 | 0.26 | 3.86 |
| COc1ccc2sc(N(Cc3cccnc3)C(=O)c3ccc(C#N)cc3)nc2c1 | 13700 | 11.9 | 14.6 | 6.72 |
| CC1CC2=C(CC1CNCCCN(C)C)C(C)(C)CCC2 (configuration not stated) | 580 | 2.12 | 0.13 | 5.9 |
| CCCn1c(=N)c(C(=O)NC2CCCCC2)cc2c(=O)n3cccc(C)c3nc21 | 5700 | 13.3 | 2.95 | 6.08 |
| CCOC(=O)C1=CN(C)C=C(C(=O)OCC)C1c1cc(Br)c(OCC)c(OC)c1 | 91 | 0.1 | 14.1 | 2.63 |
| CC(C)(C)c1ccc(C2CC3=Nc4ccccc4N(C(=O)c4ccccc4Cl)C(c4ccc(F)cc4)C3=C(O)C2)cc1 (configuration not stated) | 21400 | 12 | 15.2 | 3.73 |
| CN1CCN(c2nc(Nc3ccc(O)cc3)nc3ccccc23)CC1 | 16800 | 10.2 | 15.6 | 9 |
| CCCCc1c(CCC)c(=N)c2ccccc2n1C | 87 | 0.059 | 15.2 | 1 |
| Nc1ccn([C@@H]2O[C@H](CO)[C@@H](O)[C@H]2O)c(=O)n1 [CYTIDINE] | 7310 | 19.1 | 14.1 | 4.27 |
| O=C(Nc1cccc(C2=NCCN2)c1)Nc1cccc(C2=NCCN2)c1 [IMIDOCARB] | 59 | 0.5 | 0.052 | 0.081 |
